Experimental data taken from ChEMBL document CHEMBL5442219.

How the values were obtained:
Conditions in all cases: Compound concentration 10 µM
[1] = molecular target: T1, Alpha-2B adrenergic receptor (Homo sapiens) (UniProt P18089)
T1 sequence (whole entry): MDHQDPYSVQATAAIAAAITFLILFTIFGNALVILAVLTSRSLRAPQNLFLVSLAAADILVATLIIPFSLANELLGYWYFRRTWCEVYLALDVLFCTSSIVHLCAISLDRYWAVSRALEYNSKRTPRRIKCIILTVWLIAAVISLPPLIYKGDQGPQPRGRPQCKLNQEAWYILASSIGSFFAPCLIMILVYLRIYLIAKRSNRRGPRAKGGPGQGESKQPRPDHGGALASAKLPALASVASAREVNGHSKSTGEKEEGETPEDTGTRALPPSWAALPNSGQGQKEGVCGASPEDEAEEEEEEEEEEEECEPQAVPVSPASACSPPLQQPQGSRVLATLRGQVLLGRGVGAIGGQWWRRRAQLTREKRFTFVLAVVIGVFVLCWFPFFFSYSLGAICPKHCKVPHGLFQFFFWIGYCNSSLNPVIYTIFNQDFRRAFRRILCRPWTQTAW
Description: PDSP Primary Binding target: ADRA2B - Compounds are tested at 10 uM concentration, plate are incubated at room temperature in the dark for 90 minutes. Reaction are stopped by vacuum filtration onto 0.3% polyethyleneimine soaked filter mats using Filtermate harvester. Scintilation cocktail is then melted onto microwave-dried filters on a hot plate and the radio activity is counted in Microbia counter.

[2] = molecular target: T2, D(4) dopamine receptor (Homo sapiens) (UniProt P21917)
T2 sequence (whole entry): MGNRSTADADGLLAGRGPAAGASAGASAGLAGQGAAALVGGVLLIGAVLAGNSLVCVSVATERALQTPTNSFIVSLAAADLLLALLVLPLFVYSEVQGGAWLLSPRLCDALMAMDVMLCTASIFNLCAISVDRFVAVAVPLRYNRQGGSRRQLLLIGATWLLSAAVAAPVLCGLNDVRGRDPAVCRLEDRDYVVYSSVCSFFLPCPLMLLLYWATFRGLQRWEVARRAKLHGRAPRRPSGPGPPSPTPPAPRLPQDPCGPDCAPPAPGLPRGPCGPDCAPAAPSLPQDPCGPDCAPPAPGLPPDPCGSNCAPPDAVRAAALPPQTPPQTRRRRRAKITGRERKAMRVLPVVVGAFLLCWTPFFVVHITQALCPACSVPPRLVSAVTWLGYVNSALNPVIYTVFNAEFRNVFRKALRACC
Description: PDSP Primary Binding target: DRD4 - Compounds are tested at 10 uM concentration, plate are incubated at room temperature in the dark for 90 minutes. Reaction are stopped by vacuum filtration onto 0.3% polyethyleneimine soaked filter mats using Filtermate harvester. Scintilation cocktail is then melted onto microwave-dried filters on a hot plate and the radio activity is counted in Microbia counter.

[3] = molecular target: T3, Alpha-1A adrenergic receptor (Homo sapiens) (UniProt P35348)
T3 sequence (whole entry): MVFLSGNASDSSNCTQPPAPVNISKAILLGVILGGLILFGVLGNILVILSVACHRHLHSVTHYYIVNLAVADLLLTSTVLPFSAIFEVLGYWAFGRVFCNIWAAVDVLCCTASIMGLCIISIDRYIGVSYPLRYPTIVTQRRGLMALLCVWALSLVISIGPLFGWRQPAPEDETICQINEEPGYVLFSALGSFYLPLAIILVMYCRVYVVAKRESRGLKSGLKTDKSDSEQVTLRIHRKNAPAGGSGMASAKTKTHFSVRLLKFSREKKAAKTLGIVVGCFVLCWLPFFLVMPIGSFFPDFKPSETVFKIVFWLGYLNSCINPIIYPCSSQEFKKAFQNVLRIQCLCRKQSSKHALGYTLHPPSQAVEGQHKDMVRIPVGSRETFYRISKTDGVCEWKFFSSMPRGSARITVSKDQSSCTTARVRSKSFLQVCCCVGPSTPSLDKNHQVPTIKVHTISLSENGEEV
Description: PDSP Primary Binding target: ADRA1A - Compounds are tested at 10 uM concentration, plate are incubated at room temperature in the dark for 90 minutes. Reaction are stopped by vacuum filtration onto 0.3% polyethyleneimine soaked filter mats using Filtermate harvester. Scintilation cocktail is then melted onto microwave-dried filters on a hot plate and the radio activity is counted in Microbia counter.

[4] = molecular target: T4, 5-hydroxytryptamine receptor 2C (Homo sapiens) (UniProt P28335)
T4 sequence (whole entry): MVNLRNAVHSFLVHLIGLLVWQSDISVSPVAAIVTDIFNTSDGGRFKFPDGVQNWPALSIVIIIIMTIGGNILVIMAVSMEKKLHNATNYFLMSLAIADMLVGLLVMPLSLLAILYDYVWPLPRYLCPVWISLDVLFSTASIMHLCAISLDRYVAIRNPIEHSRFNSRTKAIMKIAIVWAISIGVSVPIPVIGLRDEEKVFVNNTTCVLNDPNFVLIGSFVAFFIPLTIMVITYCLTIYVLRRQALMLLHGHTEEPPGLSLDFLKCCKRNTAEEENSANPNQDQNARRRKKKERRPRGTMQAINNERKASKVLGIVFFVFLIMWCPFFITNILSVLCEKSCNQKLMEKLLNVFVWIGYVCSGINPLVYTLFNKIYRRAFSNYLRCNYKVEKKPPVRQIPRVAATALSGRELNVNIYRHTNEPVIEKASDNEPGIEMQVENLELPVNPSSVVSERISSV
Description: PDSP Primary Binding target: HTR2C - Compounds are tested at 10 uM concentration, plate are incubated at room temperature in the dark for 90 minutes. Reaction are stopped by vacuum filtration onto 0.3% polyethyleneimine soaked filter mats using Filtermate harvester. Scintilation cocktail is then melted onto microwave-dried filters on a hot plate and the radio activity is counted in Microbia counter.

[5] = molecular target: Kappa-type opioid receptor (Homo sapiens) (UniProt P41145)
Chain of Kappa-type opioid receptor (Homo sapiens) (P41145 whole entry): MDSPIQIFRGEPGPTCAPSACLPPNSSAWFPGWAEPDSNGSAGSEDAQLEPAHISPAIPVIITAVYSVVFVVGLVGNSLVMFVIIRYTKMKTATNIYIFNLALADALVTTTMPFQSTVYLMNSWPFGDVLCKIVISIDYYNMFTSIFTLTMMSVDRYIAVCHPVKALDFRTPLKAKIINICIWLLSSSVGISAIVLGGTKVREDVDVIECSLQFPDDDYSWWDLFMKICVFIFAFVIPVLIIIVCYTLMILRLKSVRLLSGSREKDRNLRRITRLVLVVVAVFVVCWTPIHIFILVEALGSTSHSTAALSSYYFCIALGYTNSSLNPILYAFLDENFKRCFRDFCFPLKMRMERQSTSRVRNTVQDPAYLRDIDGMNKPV
Description: PDSP Primary Binding target: OPRK1 - Compounds are tested at 10 uM concentration, plate are incubated at room temperature in the dark for 90 minutes. Reaction are stopped by vacuum filtration onto 0.3% polyethyleneimine soaked filter mats using Filtermate harvester. Scintilation cocktail is then melted onto microwave-dried filters on a hot plate and the radio activity is counted in Microbia counter.

[6] = molecular target: T5, Muscarinic acetylcholine receptor M1 (Homo sapiens) (UniProt P11229)
T5 sequence (whole entry): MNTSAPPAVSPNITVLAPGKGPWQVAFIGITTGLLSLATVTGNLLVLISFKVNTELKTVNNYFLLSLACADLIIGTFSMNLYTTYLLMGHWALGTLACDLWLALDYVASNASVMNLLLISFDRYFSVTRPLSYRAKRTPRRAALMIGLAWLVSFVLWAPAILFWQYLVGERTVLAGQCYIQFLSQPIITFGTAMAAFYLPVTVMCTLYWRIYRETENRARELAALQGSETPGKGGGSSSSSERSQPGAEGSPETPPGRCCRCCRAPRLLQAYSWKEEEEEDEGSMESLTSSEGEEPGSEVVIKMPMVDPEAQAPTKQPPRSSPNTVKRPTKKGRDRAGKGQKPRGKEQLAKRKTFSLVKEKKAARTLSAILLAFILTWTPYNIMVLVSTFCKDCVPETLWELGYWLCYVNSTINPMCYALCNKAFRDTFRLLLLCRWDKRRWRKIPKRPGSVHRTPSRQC
Description: PDSP Primary Binding target: CHRM1 - Compounds are tested at 10 uM concentration, plate are incubated at room temperature in the dark for 90 minutes. Reaction are stopped by vacuum filtration onto 0.3% polyethyleneimine soaked filter mats using Filtermate harvester. Scintilation cocktail is then melted onto microwave-dried filters on a hot plate and the radio activity is counted in Microbia counter.

[7] = molecular target: Mu-type opioid receptor (Homo sapiens) (UniProt P35372)
Chain of Mu-type opioid receptor (Homo sapiens) (P35372 whole entry): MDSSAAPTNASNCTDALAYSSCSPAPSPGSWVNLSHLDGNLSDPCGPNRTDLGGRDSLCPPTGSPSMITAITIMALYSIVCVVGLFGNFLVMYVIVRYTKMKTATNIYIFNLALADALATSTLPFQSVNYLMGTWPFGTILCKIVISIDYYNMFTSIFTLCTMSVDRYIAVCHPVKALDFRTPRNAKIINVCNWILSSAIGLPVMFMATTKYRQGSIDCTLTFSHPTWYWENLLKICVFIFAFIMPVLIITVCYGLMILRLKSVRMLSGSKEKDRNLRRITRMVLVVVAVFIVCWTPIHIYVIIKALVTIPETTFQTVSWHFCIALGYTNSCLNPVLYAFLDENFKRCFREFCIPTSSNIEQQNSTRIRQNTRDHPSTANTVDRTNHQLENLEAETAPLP
Description: PDSP Primary Binding target: OPRM1 - Compounds are tested at 10 uM concentration, plate are incubated at room temperature in the dark for 90 minutes. Reaction are stopped by vacuum filtration onto 0.3% polyethyleneimine soaked filter mats using Filtermate harvester. Scintilation cocktail is then melted onto microwave-dried filters on a hot plate and the radio activity is counted in Microbia counter.

[8] = molecular target: Histamine H1 receptor (Homo sapiens) (UniProt P35367)
Chain of Histamine H1 receptor (Homo sapiens) (P35367 whole entry): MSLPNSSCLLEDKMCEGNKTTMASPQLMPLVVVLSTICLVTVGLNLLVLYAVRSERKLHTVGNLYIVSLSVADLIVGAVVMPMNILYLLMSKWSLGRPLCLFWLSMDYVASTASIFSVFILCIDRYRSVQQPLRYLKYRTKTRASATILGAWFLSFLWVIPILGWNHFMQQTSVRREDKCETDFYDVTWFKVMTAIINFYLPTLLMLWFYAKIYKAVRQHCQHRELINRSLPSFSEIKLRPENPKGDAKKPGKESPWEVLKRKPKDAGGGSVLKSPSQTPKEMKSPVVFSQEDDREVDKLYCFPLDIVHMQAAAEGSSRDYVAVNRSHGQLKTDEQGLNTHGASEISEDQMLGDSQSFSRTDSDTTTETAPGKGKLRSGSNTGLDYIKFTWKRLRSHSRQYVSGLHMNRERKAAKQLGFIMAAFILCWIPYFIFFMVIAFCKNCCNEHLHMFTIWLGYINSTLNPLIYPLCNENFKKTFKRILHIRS
Description: PDSP Primary Binding target: HRH1 - Compounds are tested at 10 uM concentration, plate are incubated at room temperature in the dark for 90 minutes. Reaction are stopped by vacuum filtration onto 0.3% polyethyleneimine soaked filter mats using Filtermate harvester. Scintilation cocktail is then melted onto microwave-dried filters on a hot plate and the radio activity is counted in Microbia counter.

[9] = molecular target: T6, Muscarinic acetylcholine receptor M4 (Homo sapiens) (UniProt P08173)
T6 sequence (whole entry): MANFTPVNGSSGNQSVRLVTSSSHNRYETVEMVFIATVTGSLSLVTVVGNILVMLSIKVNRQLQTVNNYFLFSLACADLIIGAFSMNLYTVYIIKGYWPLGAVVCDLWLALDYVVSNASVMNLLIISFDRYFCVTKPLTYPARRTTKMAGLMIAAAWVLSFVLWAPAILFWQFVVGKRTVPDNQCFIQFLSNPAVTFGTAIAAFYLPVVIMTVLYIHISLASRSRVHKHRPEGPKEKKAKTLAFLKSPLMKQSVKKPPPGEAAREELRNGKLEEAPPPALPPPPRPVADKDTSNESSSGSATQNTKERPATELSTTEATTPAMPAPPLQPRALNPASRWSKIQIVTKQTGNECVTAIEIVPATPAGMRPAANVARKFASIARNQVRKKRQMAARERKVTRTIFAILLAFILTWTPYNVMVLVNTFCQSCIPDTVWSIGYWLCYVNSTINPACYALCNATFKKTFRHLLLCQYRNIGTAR
Description: PDSP Primary Binding target: CHRM4 - Compounds are tested at 10 uM concentration, plate are incubated at room temperature in the dark for 90 minutes. Reaction are stopped by vacuum filtration onto 0.3% polyethyleneimine soaked filter mats using Filtermate harvester. Scintilation cocktail is then melted onto microwave-dried filters on a hot plate and the radio activity is counted in Microbia counter.

NC[C@H](O)c1ccc(O)c(O)c1
inhibition [1]: 90.6% | inhibition [2]: 46.9% | inhibition [3]: 7.82% | inhibition [4]: -4.42% | inhibition [5]: 0.54% | inhibition [6]: -6.89%

CO[C@@H]1COCC[C@@H]1N[C@@H]1CC[C@@](C(=O)N2CCc3ncc(C(F)(F)F)cc3C2)(C(C)C)C1
inhibition [2]: -3.53% | inhibition [3]: -0.61% | inhibition [5]: 25.9% | inhibition [7]: 11.2% | inhibition [6]: -6.06% | inhibition [8]: 25.1%

CS(=O)(=O)NC[C@H]1CC[C@H](Nc2nc3c(s2)CCSc2ccccc2-3)CC1
inhibition [1]: 23.8% | inhibition [2]: 44% | inhibition [3]: -9.44% | inhibition [4]: 0.89% | inhibition [5]: -0.03% | inhibition [7]: -6.3% | inhibition [6]: -1.96% | inhibition [8]: 18.7%

FC(F)(F)c1c(N2CCC(c3ccccc3)CC2)ccn2c(CC3CC3)nnc12
inhibition [3]: -6.36% | inhibition [5]: 10.5% | inhibition [7]: 19.7% | inhibition [6]: -1.64% | inhibition [8]: 33%

OCc1cc(C(O)CNCCCCCCOCCCCc2ccccc2)ccc1O (centres undefined)
inhibition [1]: 74.1% | inhibition [2]: 57.4% | inhibition [3]: 77% | inhibition [4]: 60.6% | inhibition [5]: 9.07% | inhibition [7]: 6.99% | inhibition [6]: 19.1% | inhibition [8]: 27.7%

O=C(O)C1CN(Cc2ccc(-c3nc4cc(Cc5ccccc5F)ccc4s3)c(F)c2)C1
inhibition [2]: -6.1% | inhibition [3]: -8.12% | inhibition [4]: 35.8% | inhibition [5]: 0.93% | inhibition [7]: -9.83% | inhibition [6]: 0.63% | inhibition [8]: 37.5%

CC1=C2C[C@H]3[C@@H](CC=C4C[C@@H](O)CC[C@@]43C)[C@@H]2CC[C@]12O[C@@H]1C[C@H](C)CN[C@H]1[C@H]2C
inhibition [9]: -3.11% | inhibition [5]: 1.76% | inhibition [7]: 10.4% | inhibition [6]: 22.8% | inhibition [8]: 40.4%

O=C1O[C@]2(CC[C@H](C(=O)Nc3ccn(-c4ccccc4F)n3)CC2)c2cnccc21
inhibition [4]: 18.3% | inhibition [5]: -6.46% | inhibition [7]: 4.44% | inhibition [6]: -6% | inhibition [8]: 7.78%

N#Cc1c(O)nc(SCc2cccc(F)c2F)nc1C1CC1
inhibition [1]: -6.93% | inhibition [2]: -4.74% | inhibition [4]: -5.1% | inhibition [5]: 3.53% | inhibition [6]: -6.12%

COc1ccc(CNC(=O)c2cc(-c3cncc(Cl)c3)cnc2-c2ccccn2)nc1OC
inhibition [1]: -7.15% | inhibition [2]: -1.86% | inhibition [3]: 0.56% | inhibition [5]: 23.7% | inhibition [7]: 30.5% | inhibition [6]: -7.31% | inhibition [8]: 17.4%

N#Cc1c[nH]c2c(C(=O)N3CCN(CCc4ccc(F)cc4)CC3)cccc12
inhibition [1]: -6.2% | inhibition [2]: 81.9% | inhibition [3]: -8.21% | inhibition [4]: 58.7% | inhibition [5]: 7.51% | inhibition [6]: -2.04% | inhibition [8]: 46.1%

O=C(O)Cn1c(C(=O)Nc2nc(-c3ccccc3Cl)cs2)cc2ccccc21
inhibition [1]: 2.63% | inhibition [2]: -9.74% | inhibition [4]: 12.4% | inhibition [5]: 2.51% | inhibition [7]: 8.9% | inhibition [6]: 6.86% | inhibition [8]: -9.22%

O=C1N/C(=N/c2ccccc2F)S/C1=C\c1ccc(C(=O)O)cc1
inhibition [1]: -7.72% | inhibition [2]: 79.2% | inhibition [3]: -2.85% | inhibition [7]: 56% | inhibition [6]: 17.1% | inhibition [8]: 42.9%

c1nc(CC2CCNCC2)c[nH]1
inhibition [1]: 23% | inhibition [2]: 14.9% | inhibition [3]: -4.11% | inhibition [9]: -0.76% | inhibition [7]: -6.55% | inhibition [6]: 6.59% | inhibition [8]: 26.1%

CC(C)NC(=O)c1ccc(C#Cc2ccncc2)cn1
inhibition [1]: -0.82% | inhibition [3]: -5.19% | inhibition [9]: 30.9% | inhibition [5]: -1.6% | inhibition [7]: 0.15% | inhibition [6]: -0.6%

CC1CCN(CC[C@H]2CCCN2S(=O)(=O)c2cccc(O)c2)CC1
inhibition [1]: 51% | inhibition [2]: 22.1% | inhibition [9]: 8.85% | inhibition [5]: 50.4% | inhibition [7]: 62.9% | inhibition [6]: -8.14% | inhibition [8]: 44.4%

CC1(C)SSC(C)(C)[C@@H](NC(=O)[C@@H](N)Cc2ccc(O)cc2)C(=O)NCC(=O)N[C@@H](Cc2ccccc2)C(=O)N[C@H]1C(=O)O
inhibition [1]: 6.52% | inhibition [2]: 49% | inhibition [3]: -6.07% | inhibition [9]: -2.51% | inhibition [5]: -4.89% | inhibition [6]: -6.96% | inhibition [8]: 3.33%

COc1ccccc1N1CCN(CCCCNC(=O)c2ccc3ccccc3c2)CC1
inhibition [1]: 99.5% | inhibition [2]: 95.1% | inhibition [3]: 98.8% | inhibition [4]: 97.9% | inhibition [9]: 0.77% | inhibition [5]: 35.6% | inhibition [7]: 79.8% | inhibition [8]: 97%

C[C@]1(C(=O)N(CCCC(=O)O)Cc2cccc(Cl)c2)CCN1C(=O)c1csc2ccccc12
inhibition [1]: 13.3% | inhibition [2]: 4.3% | inhibition [3]: -4.07% | inhibition [9]: 27.1% | inhibition [5]: -5.78% | inhibition [6]: 5.11% | inhibition [8]: 15.4%

Cc1ccc2c(c1)c1c(n2CCc2ccc(C)nc2)CCN(C)C1
inhibition [1]: 91.7% | inhibition [2]: 52.7% | inhibition [3]: 88.6% | inhibition [4]: 81.4% | inhibition [9]: 5.78% | inhibition [5]: 20% | inhibition [7]: 2.42% | inhibition [8]: 95.1%

c1cc(CN2CCCNCCNCCCNCC2)ccc1CN1CCCNCCNCCCNCC1
inhibition [1]: -9.59% | inhibition [3]: -9.28% | inhibition [9]: 41.7% | inhibition [5]: 13.8% | inhibition [7]: 13.8% | inhibition [6]: 62.3% | inhibition [8]: -5.42%
